Values of other authors, collected in EP4789665A1, “TREATMENT OF HIS HYPORESPONDERS” (NewAmsterdam Pharma B.V., priority 2021, dated 2023).

How the values were obtained:
HMG CoA reductase = molecular target: T1, HMG CoA reductase (Homo sapiens, UniProt P04035); conditions: rosuvastatin 20 mg; JUPITER secondary analysis; cited from earlier work
T1 construct: host or cells: patients of the JUPITER study (in vivo)
T1 sequence (P04035 1-888): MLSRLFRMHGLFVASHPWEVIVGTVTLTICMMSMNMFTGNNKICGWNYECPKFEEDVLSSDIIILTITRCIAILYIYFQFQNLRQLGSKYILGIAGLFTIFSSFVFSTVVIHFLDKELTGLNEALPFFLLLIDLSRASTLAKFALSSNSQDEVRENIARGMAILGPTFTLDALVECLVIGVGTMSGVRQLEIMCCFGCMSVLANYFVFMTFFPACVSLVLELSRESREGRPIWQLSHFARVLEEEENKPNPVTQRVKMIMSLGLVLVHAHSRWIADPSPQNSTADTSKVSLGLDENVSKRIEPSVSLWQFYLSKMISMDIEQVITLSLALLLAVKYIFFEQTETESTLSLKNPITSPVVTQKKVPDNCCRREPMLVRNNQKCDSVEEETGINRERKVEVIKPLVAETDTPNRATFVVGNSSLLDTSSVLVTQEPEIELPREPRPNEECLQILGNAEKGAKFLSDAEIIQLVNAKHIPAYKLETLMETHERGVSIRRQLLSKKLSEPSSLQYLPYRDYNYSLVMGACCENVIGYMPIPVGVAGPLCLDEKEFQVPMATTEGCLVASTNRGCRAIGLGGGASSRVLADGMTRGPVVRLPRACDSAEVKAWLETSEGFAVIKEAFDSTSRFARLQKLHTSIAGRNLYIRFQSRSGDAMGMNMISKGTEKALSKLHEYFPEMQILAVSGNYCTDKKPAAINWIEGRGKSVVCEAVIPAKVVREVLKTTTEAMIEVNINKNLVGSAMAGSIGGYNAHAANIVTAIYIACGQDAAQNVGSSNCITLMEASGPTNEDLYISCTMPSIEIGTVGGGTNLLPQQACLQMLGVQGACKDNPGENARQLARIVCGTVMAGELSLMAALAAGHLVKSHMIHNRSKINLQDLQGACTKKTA

CETP [1] = molecular target: T2, CETP (Homo sapiens, UniProt P11597); conditions: in vivo; cited from earlier work
T2 construct: endogenous in cells; host or cells: trial patients (in vivo, circulating plasma CETP)
T2 sequence (P11597 18-493): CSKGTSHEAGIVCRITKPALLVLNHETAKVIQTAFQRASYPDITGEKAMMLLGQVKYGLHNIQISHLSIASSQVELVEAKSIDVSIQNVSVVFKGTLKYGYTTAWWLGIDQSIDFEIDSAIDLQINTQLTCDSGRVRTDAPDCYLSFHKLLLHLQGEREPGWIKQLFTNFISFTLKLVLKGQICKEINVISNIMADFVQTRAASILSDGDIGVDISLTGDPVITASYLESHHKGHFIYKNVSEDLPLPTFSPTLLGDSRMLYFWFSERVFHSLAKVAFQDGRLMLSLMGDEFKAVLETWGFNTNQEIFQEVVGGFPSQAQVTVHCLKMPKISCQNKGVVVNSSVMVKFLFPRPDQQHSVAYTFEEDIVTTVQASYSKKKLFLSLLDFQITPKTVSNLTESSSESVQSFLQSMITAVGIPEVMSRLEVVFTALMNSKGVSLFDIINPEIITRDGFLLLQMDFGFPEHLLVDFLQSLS

CETP [2] = molecular target: T2, CETP; conditions: in combination with atorvastatin; cited from earlier work

## CC(C)c1nc(N(C)S(C)(=O)=O)nc(-c2ccc(F)cc2)c1/C=C/[C@@H](O)C[C@@H](O)CC(=O)O [rosuvastatin]
HMG CoA reductase
  median LDL-C lowering response: 50%

## CCC(CC)CC1(C(=O)Nc2ccccc2SC(=O)C(C)C)CCCCC1 [dalcetrapib]
CETP [1]
  effects on LDL-C concentrations: minimal effects on LDL-C concentrations
  increased HDL-C by: 30-40%

## CCOC(=O)N1c2ccc(C(F)(F)F)cc2[C@@H](N(Cc2cc(C(F)(F)F)cc(C(F)(F)F)c2)C(=O)OC)C[C@H]1CC [torcetrapib]
CETP [2]
  cardiovascular events and death: unexpected increase in cardiovascular events and death
